Two molecules from ChEMBL document CHEMBL1157914, “5,5'-substituted indirubin-3'-oxime derivatives as potent cyclin-dependent kinase inhibitors with anticancer activity” (J Med Chem, 2010) can be followed below.

A short description of series [1]: Cell cycle arrest in rat RK3E cells expressing k-ras assessed as accumulation at G0/G1 phase at 2.5 uM after 24 hrs using propidium iodide stain by flow cytometry. The series is classed as functional, cell-based. In general terms: In flow cytometry, cells or beads pass a laser one at a time.
Series [2] deals with Cyclin-dependent kinase 1/cyclin B1 (Homo sapiens, UniProt P06493). In words: Inhibition of CDK1/cyclin B after 40 mins by liquid scintillation counting. The series is classed as protein-complex assay.
The target in series [3] is T1, High affinity nerve growth factor receptor (Homo sapiens, UniProt P04629). In words: Inhibition of recombinant TrKa preincubated for 15 mins by HTRF assay. For orientation: Time-resolved FRET reads energy transfer from a long-lived donor to a nearby acceptor.
Series [4] can be described thus: Cell cycle arrest in rat RK3E cells expressing k-ras assessed as accumulation at S phase at 1 uM after 24 hrs using propidium iodide stain by flow cytometry. The series is classed as functional, cell-based.
The nature of series [5]: Cell cycle arrest in rat RK3E cells expressing k-ras assessed as accumulation at sub G0 phase at 2.5 uM after 24 hrs using propidium iodide stain by flow cytometry. The series is classed as functional, cell-based.
Series [6] is described as follows: Cell cycle arrest in rat RK3E cells expressing k-ras assessed as accumulation at G0/G1 phase at 1 uM after 24 hrs using propidium iodide stain by flow cytometry. The series is classed as functional, cell-based.
Series [7] can be described thus: Cell cycle arrest in rat RK3E cells expressing k-ras assessed as accumulation at sub G0 phase at 1 uM after 24 hrs using propidium iodide stain by flow cytometry. The series is classed as functional, cell-based.
In the next series the test system is KB. As to the kind of experiment: Antiproliferative activity against human KB cells after 3 days by SRB assay. The series is classed as functional, cell-based. The settings on record: 72 h.
Series [8] is described as follows: Solubility of compound in 2 equimolar NaOH and distilled water. The series is classed as physicochemical. Particulars: buffer.
Series [9] is described as follows: Cell cycle arrest in rat RK3E cells expressing k-ras assessed as accumulation at S phase at 2.5 uM after 24 hrs using propidium iodide stain by flow cytometry. The series is classed as functional, cell-based.
The nature of series [10]: Cell cycle arrest in rat RK3E cells expressing k-ras assessed as accumulation at G2/M phase at 1 uM after 24 hrs using propidium iodide stain by flow cytometry. The series is classed as functional, cell-based.
For another series, the system named is MCF7. As to the kind of experiment: Antiproliferative activity against human MCF7 cells after 3 days by SRB assay. The series is classed as functional, cell-based. Particulars: MCF7, 72 h.
For series [11], the target named is Cyclin-dependent kinase 1/cyclin B1 (Homo sapiens) (UniProt P06493+P14635). In words: Inhibition of CDK1/cyclin B at 1 uM after 40 mins by lequid scintillation counting. The series is classed as protein-complex assay.
Series [12] relates to RK3E. As to the kind of experiment: Antitumor activity against rat RK3E cells expressing k-ras and GFP/Luc genes transplanted in Sprague-Dawley rat assessed as increase in apoptotic cells at 5 mg/kg, iv administered 5 days after tumor implantation for 5 times measured after 11 days by TUNEL assay relative to control. Also noted: dose 5 mg/kg. The series is classed as functional, organism-based.

Series [13] is described as follows: Antitumor activity against rat RK3E cells expressing k-ras and GFP/Luc genes transplanted in Sprague-Dawley rat assessed as decrease in tumor volume at 5 mg/kg, iv administered 5 days after tumor implantation for 5 times measured after 48 hrs post dose relative to control. The series is classed as functional. On the set-up: scale not given: the % may be the effect or the level left.

Series [14] in a line: Cell cycle arrest in rat RK3E cells expressing k-ras assessed as accumulation at G2/M phase at 2.5 uM after 24 hrs using propidium iodide stain by flow cytometry. The series is classed as functional, cell-based.
The next series relates to Rattus norvegicus. As to the kind of experiment: Toxicity in rat RK3E cells expressing k-ras and GFP/Luc genes transplanted in Sprague-Dawley rat assessed as change in body weight at 5 mg/kg, iv administered 5 days after tumor implantation for 5 times measured after 48 hrs post dose. Also noted: dose 5 mg/kg, route intravenous. The series is classed as organism-based. Particulars: in vivo.

Series [15] has as its system RK3E. In words: Antitumor activity against rat RK3E cells expressing k-ras and GFP/Luc genes transplanted in Sprague-Dawley rat assessed as decrease of tumor growth at 5 mg/kg, iv administered 5 days after tumor implantation for 5 times measured on day 10 by luciferin bioluminescence assay. The series is classed as functional, organism-based. On the set-up: dose 5 mg/kg.

Series [16] can be described thus: Solubility of compound in 3 equimolar NaOH and 0.1 N NaHCO3 buffer. The series is classed as physicochemical.
The test system of series [17] is RK3E. In words: Antitumor activity against rat RK3E cells expressing k-ras and GFP/Luc genes transplanted in Sprague-Dawley rat assessed as decrease of PCNA expression at 5 mg/kg, iv administered 5 days after tumor implantation for 5 times measured after 11 days by immunohistochemical staining relative to control. The series is classed as functional, organism-based. Also noted: dose 5 mg/kg.

Series [18] deals with T1, High affinity nerve growth factor receptor. In words: Inhibition of recombinant TrKa at 1 uM preincubated for 15 mins by HTRF assay.
Target sequence in this assay (P04629 33-796 limits assumed): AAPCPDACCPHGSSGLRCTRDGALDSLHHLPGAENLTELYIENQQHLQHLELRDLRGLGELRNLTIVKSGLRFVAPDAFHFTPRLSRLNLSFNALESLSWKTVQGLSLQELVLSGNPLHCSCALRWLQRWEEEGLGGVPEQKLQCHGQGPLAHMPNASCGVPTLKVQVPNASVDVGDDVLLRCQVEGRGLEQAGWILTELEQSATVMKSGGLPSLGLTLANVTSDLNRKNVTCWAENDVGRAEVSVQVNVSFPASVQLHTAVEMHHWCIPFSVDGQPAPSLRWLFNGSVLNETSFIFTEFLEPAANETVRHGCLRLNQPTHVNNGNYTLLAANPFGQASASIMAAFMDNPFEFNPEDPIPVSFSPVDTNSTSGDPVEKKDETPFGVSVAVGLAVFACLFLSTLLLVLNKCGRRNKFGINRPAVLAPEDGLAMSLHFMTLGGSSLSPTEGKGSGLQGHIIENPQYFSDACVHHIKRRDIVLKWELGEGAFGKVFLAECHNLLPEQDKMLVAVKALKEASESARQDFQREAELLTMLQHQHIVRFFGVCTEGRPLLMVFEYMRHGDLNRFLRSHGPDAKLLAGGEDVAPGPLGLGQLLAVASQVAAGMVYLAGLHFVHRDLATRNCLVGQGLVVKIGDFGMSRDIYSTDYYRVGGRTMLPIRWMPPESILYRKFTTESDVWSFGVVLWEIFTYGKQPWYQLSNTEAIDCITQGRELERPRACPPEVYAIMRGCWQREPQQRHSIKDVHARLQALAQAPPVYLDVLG
Series [19] can be described thus: Aqueous solubility of compound in water. The series is classed as physicochemical. Particulars: buffer.
Series [20] can be described thus: Solubility of compound in 3 equimolar NaOH and distilled water. The series is classed as physicochemical. The settings on record: buffer.
Series [21] concerns the target Inhibitor of nuclear factor kappa-B kinase subunit beta (Homo sapiens, UniProt O14920). In words: Inhibition of recombinant IKK-beta preincubated for 15 mins by HTRF assay.
The target in series [22] is Cyclin-dependent kinase 2/cyclin E1 (Homo sapiens, UniProt P24941). In words: Inhibition of CDK2/cyclin E. The series is classed as protein-complex assay.
Series [23] addresses Cyclin-dependent kinase 2/cyclin E1 (Homo sapiens) (UniProt P24864+P24941). As to the kind of experiment: Inhibition of CDK2/cyclin E as percent residual activity. Also noted: Residual activity / inhibition: concentration or dose not given beside the values. The series is classed as protein-complex assay.
The next series concerns SNU-638. In words: Antiproliferative activity against human SNU638 cells after 3 days by SRB assay. The series is classed as functional, cell-based. Particulars: SNU-638, 72 h. In general terms: In SRB staining, fixed cells bind dye roughly in proportion to their protein.
Series [24] concerns the target Phosphatidylinositol 4,5-bisphosphate 3-kinase catalytic subunit gamma isoform (Homo sapiens) (UniProt P48736). In words: Inhibition of human PI3Kgamma at 10 uM preincubated for 15 mins by HTRF assay.
The target in series [25] is Insulin receptor (Homo sapiens) (UniProt P06213). As to the kind of experiment: Inhibition of insulin receptor at 10 uM preincubated for 15 mins by HTRF assay.
Series [26] concerns the target Aurora kinase A (Homo sapiens) (UniProt O14965). As to the kind of experiment: Inhibition of recombinant auroraA at 10 uM preincubated for 15 mins by HTRF assay.
Series [27] deals with Macrophage-stimulating protein receptor (Homo sapiens) (UniProt Q04912). As to the kind of experiment: Inhibition of recombinant Ron at 10 uM preincubated for 15 mins by HTRF assay.
Sequence of Macrophage-stimulating protein receptor (Homo sapiens) (Q04912 25-304 limits assumed): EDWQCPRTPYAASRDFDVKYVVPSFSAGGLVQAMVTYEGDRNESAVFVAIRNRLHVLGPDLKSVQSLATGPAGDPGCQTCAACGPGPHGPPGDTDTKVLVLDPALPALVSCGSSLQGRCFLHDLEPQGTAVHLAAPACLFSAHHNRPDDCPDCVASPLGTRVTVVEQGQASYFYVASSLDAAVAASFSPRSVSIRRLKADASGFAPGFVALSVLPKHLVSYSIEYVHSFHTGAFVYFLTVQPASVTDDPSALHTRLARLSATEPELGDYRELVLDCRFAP
Sequence of Macrophage-stimulating protein receptor (Homo sapiens) (Q04912 310-1400 limits assumed): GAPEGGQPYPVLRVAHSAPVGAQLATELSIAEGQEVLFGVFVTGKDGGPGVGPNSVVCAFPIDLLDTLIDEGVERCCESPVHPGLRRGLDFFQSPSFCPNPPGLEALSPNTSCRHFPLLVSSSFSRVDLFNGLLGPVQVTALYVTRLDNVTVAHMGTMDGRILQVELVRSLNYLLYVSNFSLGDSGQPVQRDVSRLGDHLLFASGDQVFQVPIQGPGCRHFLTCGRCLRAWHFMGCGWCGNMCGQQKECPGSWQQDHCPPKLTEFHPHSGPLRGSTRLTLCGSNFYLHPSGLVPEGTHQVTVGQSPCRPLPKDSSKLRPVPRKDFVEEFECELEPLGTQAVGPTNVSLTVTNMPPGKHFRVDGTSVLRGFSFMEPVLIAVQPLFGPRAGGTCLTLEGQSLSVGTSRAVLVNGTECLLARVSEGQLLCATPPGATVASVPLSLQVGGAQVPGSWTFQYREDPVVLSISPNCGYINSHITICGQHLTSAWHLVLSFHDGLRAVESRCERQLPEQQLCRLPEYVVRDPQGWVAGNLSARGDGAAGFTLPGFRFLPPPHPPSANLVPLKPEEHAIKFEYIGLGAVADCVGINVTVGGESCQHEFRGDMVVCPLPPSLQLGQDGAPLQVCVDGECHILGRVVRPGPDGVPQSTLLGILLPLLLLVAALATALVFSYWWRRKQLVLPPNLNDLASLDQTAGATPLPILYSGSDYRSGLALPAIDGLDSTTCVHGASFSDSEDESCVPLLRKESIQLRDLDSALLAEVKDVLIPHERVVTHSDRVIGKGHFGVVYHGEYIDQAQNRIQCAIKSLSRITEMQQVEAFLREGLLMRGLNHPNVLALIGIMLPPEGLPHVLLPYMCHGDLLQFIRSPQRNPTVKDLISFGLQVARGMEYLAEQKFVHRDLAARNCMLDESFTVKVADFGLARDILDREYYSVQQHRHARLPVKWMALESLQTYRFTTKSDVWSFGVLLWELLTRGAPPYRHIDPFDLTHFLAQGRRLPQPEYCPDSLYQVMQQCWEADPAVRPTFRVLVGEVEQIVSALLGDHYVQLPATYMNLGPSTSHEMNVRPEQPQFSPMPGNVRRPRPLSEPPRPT
The test system of a further series is K562. In words: Antiproliferative activity against human K562 cells after 3 days by SRB assay. Particulars: K562, 72 h. The series is classed as functional, cell-based.
In series [28] the target is Vascular endothelial growth factor receptor 2 (Homo sapiens) (UniProt P35968). As to the kind of experiment: Inhibition of recombinant VEGFR2 at 10 uM preincubated for 15 mins by HTRF assay.
Sequence of Vascular endothelial growth factor receptor 2 (Homo sapiens) (P35968 whole entry): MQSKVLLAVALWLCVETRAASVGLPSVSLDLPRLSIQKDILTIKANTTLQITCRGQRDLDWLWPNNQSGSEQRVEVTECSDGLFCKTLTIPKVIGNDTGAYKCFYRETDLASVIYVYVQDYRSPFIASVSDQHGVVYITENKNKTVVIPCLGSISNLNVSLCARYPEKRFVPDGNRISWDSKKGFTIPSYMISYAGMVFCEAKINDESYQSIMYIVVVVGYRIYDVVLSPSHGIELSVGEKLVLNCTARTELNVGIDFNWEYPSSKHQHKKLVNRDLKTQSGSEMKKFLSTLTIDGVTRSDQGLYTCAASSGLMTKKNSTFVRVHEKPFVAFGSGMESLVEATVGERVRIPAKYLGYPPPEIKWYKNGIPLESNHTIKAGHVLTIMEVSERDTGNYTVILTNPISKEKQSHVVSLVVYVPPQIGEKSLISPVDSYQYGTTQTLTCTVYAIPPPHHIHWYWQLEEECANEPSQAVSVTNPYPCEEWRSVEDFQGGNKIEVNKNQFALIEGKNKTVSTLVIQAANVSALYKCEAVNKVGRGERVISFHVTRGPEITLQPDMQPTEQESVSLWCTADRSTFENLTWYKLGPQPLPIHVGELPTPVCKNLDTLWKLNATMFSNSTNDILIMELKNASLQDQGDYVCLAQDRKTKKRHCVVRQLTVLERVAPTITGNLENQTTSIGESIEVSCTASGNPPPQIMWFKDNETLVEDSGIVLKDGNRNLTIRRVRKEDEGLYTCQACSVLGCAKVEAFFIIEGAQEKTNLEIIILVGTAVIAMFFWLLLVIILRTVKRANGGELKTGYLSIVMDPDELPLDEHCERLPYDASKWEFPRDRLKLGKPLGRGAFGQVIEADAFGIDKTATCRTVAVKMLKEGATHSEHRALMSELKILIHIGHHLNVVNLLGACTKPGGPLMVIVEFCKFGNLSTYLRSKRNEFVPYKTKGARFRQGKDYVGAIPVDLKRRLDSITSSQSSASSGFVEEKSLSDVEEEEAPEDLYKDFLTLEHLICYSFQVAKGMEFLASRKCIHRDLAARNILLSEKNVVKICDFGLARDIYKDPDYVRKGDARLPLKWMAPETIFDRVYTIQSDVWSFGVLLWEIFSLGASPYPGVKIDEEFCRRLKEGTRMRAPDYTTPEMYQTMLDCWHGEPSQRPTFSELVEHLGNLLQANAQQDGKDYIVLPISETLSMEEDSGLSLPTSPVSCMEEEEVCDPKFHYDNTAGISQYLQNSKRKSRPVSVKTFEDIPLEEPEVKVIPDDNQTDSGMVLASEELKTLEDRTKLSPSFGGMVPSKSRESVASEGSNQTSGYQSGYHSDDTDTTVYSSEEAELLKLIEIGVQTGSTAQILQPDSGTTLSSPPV
The target in series [29] is Epidermal growth factor receptor (Homo sapiens) (UniProt P00533). In words: Inhibition of recombinant EGFR at 10 uM preincubated for 15 mins by HTRF assay.
The nature of series [30]: Selectivity ratio for CDK2/cyclinE over CDK1/cyclin B.
The test system of another series is A549. As to the kind of experiment: Antiproliferative activity against human A549 cells after 3 days by SRB assay. The series is classed as functional, cell-based. The settings on record: A549, 72 h.
Another series relates to HT-1080. In words: Antiproliferative activity against human HT1080 cells after 3 days by SRB assay. The series is classed as functional, cell-based. The settings on record: HT-1080, 72 h.
Series [31] addresses T1, High affinity nerve growth factor receptor. As to the kind of experiment: Inhibition of recombinant TrKa at 10 uM preincubated for 15 mins by HTRF assay.
Target sequence in this assay (P04629 33-796 limits assumed): as the sequence (P04629 33-796 limits assumed) above
Series [32] addresses Inhibitor of nuclear factor kappa-B kinase subunit beta (Homo sapiens) (UniProt O14920). As to the kind of experiment: Inhibition of recombinant IKK-beta at 10 uM preincubated for 15 mins by HTRF assay.
The subject of series [33] is Hepatocyte growth factor receptor (Homo sapiens), P08581 [M1250T]. In words: Inhibition of recombinant Met M1250T mutant at 10 uM preincubated for 15 mins by HTRF assay.
Series [34] in a line: Antiproliferative activity against human […] cells after 3 days by SRB assay. Particulars: 72 h. The series is classed as functional, cell-based.
Series [35] addresses Hepatocyte growth factor receptor (Homo sapiens) (UniProt P08581). As to the kind of experiment: Inhibition of recombinant c-met at 10 uM preincubated for 15 mins by HTRF assay.

As a reminder, the IC50 is the point on the concentration scale where inhibition reaches its midpoint. The term solubility denotes the dissolved amount per volume that the medium holds. In general, inhibition refers to the change of the read-out against control, counted positive when it falls.

Values after ≈ are worked out from the molar mass of the structure shown. Active and inactive are the calls of the source. The calls are words filed in the database; no cut-off is given here.

Sequence of Aurora kinase A (Homo sapiens) (O14965 whole entry): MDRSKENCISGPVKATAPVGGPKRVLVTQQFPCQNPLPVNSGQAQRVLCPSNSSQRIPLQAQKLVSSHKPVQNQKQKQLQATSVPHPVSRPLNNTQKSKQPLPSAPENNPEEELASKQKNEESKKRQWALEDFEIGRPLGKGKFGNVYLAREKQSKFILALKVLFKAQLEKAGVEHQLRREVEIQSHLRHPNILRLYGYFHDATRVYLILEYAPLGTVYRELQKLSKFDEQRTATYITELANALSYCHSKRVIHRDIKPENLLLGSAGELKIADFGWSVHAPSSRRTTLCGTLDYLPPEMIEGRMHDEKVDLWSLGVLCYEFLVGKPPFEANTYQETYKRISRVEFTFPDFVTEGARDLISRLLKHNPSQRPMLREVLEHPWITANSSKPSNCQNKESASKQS
Sequence of Phosphatidylinositol 4,5-bisphosphate 3-kinase catalytic subunit gamma isoform (Homo sapiens) (P48736 whole entry, looked up, canonical isoform): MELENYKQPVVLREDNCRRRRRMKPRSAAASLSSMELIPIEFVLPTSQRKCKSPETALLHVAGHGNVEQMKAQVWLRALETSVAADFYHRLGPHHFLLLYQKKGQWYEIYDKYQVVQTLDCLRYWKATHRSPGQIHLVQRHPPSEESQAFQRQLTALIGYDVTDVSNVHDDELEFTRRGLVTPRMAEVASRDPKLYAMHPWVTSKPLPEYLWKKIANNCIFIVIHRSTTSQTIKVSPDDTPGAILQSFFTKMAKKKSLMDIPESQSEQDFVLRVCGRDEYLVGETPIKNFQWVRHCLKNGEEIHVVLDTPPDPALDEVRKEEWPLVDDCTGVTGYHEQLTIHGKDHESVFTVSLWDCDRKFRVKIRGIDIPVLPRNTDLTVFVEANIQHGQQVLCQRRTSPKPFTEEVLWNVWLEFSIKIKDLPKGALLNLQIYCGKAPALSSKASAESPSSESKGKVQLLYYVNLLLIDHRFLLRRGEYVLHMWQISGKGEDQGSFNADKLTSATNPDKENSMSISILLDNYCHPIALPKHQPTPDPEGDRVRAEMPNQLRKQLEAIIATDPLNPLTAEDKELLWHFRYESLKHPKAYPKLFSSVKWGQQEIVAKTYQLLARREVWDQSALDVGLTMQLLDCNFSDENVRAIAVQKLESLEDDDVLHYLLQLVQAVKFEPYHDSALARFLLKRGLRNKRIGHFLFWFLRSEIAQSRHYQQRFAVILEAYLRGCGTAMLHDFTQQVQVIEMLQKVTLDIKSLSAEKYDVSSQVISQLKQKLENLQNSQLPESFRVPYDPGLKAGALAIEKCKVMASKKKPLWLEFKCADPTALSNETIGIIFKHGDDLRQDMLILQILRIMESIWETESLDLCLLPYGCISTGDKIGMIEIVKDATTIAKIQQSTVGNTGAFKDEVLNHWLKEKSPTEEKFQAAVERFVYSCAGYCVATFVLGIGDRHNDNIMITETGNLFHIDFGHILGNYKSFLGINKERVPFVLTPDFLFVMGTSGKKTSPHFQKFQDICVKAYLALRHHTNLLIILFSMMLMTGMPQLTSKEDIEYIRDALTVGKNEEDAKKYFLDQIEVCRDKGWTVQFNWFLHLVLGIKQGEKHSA

For `O=C1Nc2ccc([N+](=O)[O-])cc2/C1=C1/Nc2ccc(O)cc2/C1=N/O`, the Activity in [1] was found to be 74.5%; in series [4], 7.96%; in [5] it was 5.59%; in series [6] it was 57.7%; in series [7] it was 8.16%; in series [9] it was 9.66%. Moreover, the Activity in series [10] is 8.16%; in series [13] it was 84.3%; in series [14], 5.67%; with Rattus norvegicus, “Non-toxic”. The IC50 in series [2] was 0.013 µM; in [3], 4 µM; in the series with KB it was 1.33 µM; in the series with MCF7, 1.21 µM; in [21], 10 µM; in series [22] it was 0.00191 µM. For the same molecule, the solubility in series [8] came to 2700 µg/mL (≈ 7.98 mM); in [16], 200 µg/mL (≈ 0.591 mM); in series [19] it was 10 µg/mL (≈ 0.0296 mM); in [20] it was 3000 µg/mL (≈ 8.87 mM). Also, the inhibition result in series [11] is “Active”. The result with RK3E [12], in the series with RK3E [15] and with RK3E [17] was Active. Also, the inhibition in series [18] was 9%. In series [23], the Residual activity was determined as 90%.
Consider `O=C1Nc2ccc([N+](=O)[O-])cc2/C1=C1/Nc2ccc(Cl)cc2/C1=N/O`, for which the IC50 in the series on SNU-638 was found to be 1.16 µM; with KB it was 1.11 µM; with K562 it was 0.56 µM; in the series on MCF7 it was 0.51 µM; in the series on A549 it was 15.6 µM; in the series on HT-1080, 1.25 µM. The IC50 in [34] was found to be 0.33 µM; in series [22], 0.0235 µM. The inhibition entry in series [24], in [25], in series [26], in series [27], in series [28] and in series [29] was “inactive” throughout. The inhibition result in [31], in series [32], in [33] and in [35] was “inactive” throughout. The Selectivity ratio in [30] came to 8. In [23], this molecule returned a Residual activity of 90%.
